Reference: US20240270751A1, “Pyrazolopyridinone Compounds” (BeiGene Ltd., priority 2021, published 2024)

Key:
DGKζ = DGKζ (Homo sapiens (Human), UniProt Q13574); assay: Biochemical DGK IC50 assay, DGKζ ADP-Glo assay; conditions: 0.5 nM enzyme, 140 μM ATP, 80 μM DAG; read-out: DGKζ ADP-Glo assay IC50
Method in brief: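 ADP formation measured by ADP-Glo luminescence, with test compounds at final 1.55–10000 nM or 23.3–150000 nM. Enzyme: purified full-length human DGKζ from Sf9 insect cells; substrate: DAG/PS micelles in 25 mM HEPES pH 7.0, 0.5 mM EDTA, octyl glucoside.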

DGKα = DGKα (Homo sapiens (Human), UniProt P23743); assay: Biochemical DGK IC50 assay, DGKα ADP-Glo assay; conditions: 7.5 nM enzyme, 140 μM ATP, 80 μM DAG
Sequence of DGKα (P23743 whole entry): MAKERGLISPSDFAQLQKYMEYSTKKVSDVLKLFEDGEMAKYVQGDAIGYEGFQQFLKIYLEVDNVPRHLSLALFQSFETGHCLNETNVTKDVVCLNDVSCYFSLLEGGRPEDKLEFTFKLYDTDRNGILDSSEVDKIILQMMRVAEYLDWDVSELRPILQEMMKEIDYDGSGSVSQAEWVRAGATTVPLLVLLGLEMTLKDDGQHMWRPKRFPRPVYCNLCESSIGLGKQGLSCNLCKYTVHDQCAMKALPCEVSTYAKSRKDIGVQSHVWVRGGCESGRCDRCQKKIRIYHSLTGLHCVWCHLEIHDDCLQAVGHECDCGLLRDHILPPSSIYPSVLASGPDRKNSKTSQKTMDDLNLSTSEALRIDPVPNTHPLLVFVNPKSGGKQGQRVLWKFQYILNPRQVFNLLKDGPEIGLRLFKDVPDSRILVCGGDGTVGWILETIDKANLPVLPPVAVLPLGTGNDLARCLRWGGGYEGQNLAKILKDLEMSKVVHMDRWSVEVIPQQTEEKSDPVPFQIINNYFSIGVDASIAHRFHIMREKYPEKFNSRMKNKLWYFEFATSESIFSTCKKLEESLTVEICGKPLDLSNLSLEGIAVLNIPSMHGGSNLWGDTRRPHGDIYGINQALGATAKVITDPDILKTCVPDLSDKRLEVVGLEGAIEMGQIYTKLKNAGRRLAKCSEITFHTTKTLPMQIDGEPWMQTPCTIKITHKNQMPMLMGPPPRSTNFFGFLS
Method in brief: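 Compounds at final 1.55˜10000 nM or 23.3˜150000 nM were tested against full-length DGKα. Substrate was lipid micelles of DAG and PS resuspended in 25 mM HEPES pH 7.0 with 0.5 mM EDTA and 160 mM octyl β-D-glucopyranoside. ADP formed was detected by ADP-Glo.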

Sequence of DGKζ (Q13574 other isoform, or with tags, fused parts or gaps): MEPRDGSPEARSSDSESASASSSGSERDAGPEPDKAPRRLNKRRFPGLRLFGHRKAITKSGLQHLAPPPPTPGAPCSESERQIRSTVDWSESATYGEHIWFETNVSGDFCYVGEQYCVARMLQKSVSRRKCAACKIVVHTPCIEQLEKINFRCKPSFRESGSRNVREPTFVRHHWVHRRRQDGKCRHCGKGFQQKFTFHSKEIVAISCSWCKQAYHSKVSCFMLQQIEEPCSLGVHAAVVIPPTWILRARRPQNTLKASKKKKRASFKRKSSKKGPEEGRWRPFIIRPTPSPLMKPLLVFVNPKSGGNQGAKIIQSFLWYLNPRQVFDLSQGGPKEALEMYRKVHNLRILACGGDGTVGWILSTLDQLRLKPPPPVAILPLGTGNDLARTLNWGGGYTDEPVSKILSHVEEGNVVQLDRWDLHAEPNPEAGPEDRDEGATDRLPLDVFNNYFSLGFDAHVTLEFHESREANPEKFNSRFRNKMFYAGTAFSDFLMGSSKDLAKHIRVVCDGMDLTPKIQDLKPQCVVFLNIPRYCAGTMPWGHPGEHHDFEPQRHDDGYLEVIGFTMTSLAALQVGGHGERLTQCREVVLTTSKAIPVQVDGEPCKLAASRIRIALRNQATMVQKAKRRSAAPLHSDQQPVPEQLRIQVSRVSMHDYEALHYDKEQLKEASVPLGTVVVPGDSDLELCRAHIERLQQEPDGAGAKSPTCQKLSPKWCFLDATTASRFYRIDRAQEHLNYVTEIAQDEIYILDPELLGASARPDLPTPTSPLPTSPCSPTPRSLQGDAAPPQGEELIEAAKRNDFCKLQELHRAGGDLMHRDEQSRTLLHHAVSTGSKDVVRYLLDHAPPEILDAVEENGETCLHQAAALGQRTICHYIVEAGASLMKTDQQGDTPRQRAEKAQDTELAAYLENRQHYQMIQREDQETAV

Compound	IC50 (DGKζ)	IC50 (DGKα)
Cc1cnc2ccc([C@H](C)N3C[C@H](C)N(c4c(C#N)c(=O)n(C)c5cn(CC#N)nc45)C[C@H]3C)cc2n1 [Compound A318, 2-(cyanomethyl)-7-((2S,5R)-2,5-dimethyl-4-((S)-1-(3-methylquinoxalin-6-yl)ethyl)piperazin-1-yl)-4-methyl-5-oxo-4,5-dihydro-2H-pyrazolo[4,3-b]pyridine-6-carbonitrile]	0.015 µM	6.49 µM
Cc1cnc2ccc([C@H](C)N3C[C@H](C)N(c4nc(=O)n(C)c5cn(CC#N)nc45)C[C@H]3C)cc2n1 [Compound A319, 2-(7-((2S,5R)-2,5-dimethyl-4-((S)-1-(3-methylquinoxalin-6-yl)ethyl)piperazin-1-yl)-4-methyl-5-oxo-4,5-dihydro-2H-pyrazolo[4,3-d]pyrimidin-2-yl)acetonitrile]	0.023 µM	49.8 µM
Cc1nc2cc(C(C)N3C[C@H](C)N(c4cc(=O)n(C)c5cn(CC#N)nc45)C[C@H]3C)ccc2s1 (some centres unmarked) [Compound A320]	0.159 µM	11.6 µM
CC(c1ccc2c(c1)OC1(CC1)CO2)N1C[C@H](C)N(c2cc(=O)n(C)c3cn(CC#N)nc23)C[C@H]1C (stereo partly drawn) [Compound A323, 2-(7-((2S,5R)-4-(1-(3H-spiro[benzo[b][1,4]dioxine-2,1′-cyclopropan]-7-yl)ethyl)-2,5-dimethylpiperazin-1-yl)-4-methyl-5-oxo-4,5-dihydro-2H-pyrazolo[4,3-b]pyridin-2-yl)acetonitrile]	0.007 µM	10.7 µM
CC(c1ccc2c(n1)OCCO2)N1C[C@H](C)N(c2cc(=O)n(C)c3cn(CC#N)nc23)C[C@H]1C (stereo partly drawn) [Compound A324, 2-(7-((2S,5R)-4-(1-(2,3-dihydro-[1,4]dioxino[2,3-b]pyridin-6-yl)ethyl)-2,5-dimethylpiperazin-1-yl)-4-methyl-5-oxo-4,5-dihydro-2H-pyrazolo[4,3-b]pyridin-2-yl)acetonitrile]	4.02 µM	> 150 µM
CC(c1ccc2c(n1)OC(C)(C)CO2)N1C[C@H](C)N(c2cc(=O)n(C)c3cn(CC#N)nc23)C[C@H]1C (stereo partly drawn) [Compound A325, 2-(7-((2S,5R)-4-(1-(3,3-dimethyl-2,3-dihydro-[1,4]dioxino[2,3-b]pyridin-6-yl)ethyl)-2,5-dimethylpiperazin-1-yl)-4-methyl-5-oxo-4,5-dihydro-2H-pyrazolo[4,3-b]pyridin-2-yl)acetonitrile]	0.089 µM	103 µM
CC[C@H]1CN(C(C)c2ccc(F)cc2C(C)OC)[C@H](CC)CN1c1cc(=O)n(C)c2cn(CC#N)nc12 (stereo partly drawn) [Compound A327, 2-(7-((2S,5R)-2,5-diethyl-4-(1-(4-fluoro-2-(1-methoxyethyl)phenyl)ethyl)piperazin-1-yl)-4-methyl-5-oxo-4,5-dihydro-2H-pyrazolo[4,3-b]pyridin-2-yl)acetonitrile]	0.019 µM	> 150 µM
CC(OC(F)F)c1cc(F)ccc1C(C)N1C[C@H](C)N(c2cc(=O)n(C)c3cn(CC#N)nc23)C[C@H]1C (stereo partly drawn) [Compound A328, 2-(7-((2S,5R)-4-(1-(2-(1-(difluoromethoxy)ethyl)-4-fluorophenyl)ethyl)-2,5-dimethylpiperazin-1-yl)-4-methyl-5-oxo-4,5-dihydro-2H-pyrazolo[4,3-b]pyridin-2-yl)acetonitrile]	0.143 µM	83 µM
COC1(c2cc(F)ccc2C(C)N2C[C@H](C)N(c3cc(=O)n(C)c4cn(CC#N)nc34)C[C@H]2C)CC1 (stereo partly drawn) [Compound A329, 2-(7-((2S,5R)-4-(1-(4-fluoro-2-(1-methoxycyclopropyl)phenyl)ethyl)-2,5-dimethylpiperazin-1-yl)-4-methyl-5-oxo-4,5-dihydro-2H-pyrazolo[4,3-b]pyridin-2-yl)acetonitrile]	0.091 µM	> 150 µM
CC(c1ccc2c(c1)C(F)(F)CCO2)N1C[C@H](C)N(c2cc(=O)n(C)c3cn(CC#N)nc23)C[C@H]1C (stereo partly drawn) [Compound A331, 2-(7-((2S,5R)-4-(1-(4,4-difluorochroman-6-yl)ethyl)-2,5-dimethylpiperazin-1-yl)-4-methyl-5-oxo-4,5-dihydro-2H-pyrazolo[4,3-b]pyridin-2-yl)acetonitrile]	0.046 µM	31.8 µM
CC[C@@H]1CN(c2cc(=O)n(C)c3cn(CC#N)nc23)[C@@H](C)CN1C(c1ccc(F)cc1)c1ccc(C(F)(F)F)cn1 (stereo partly drawn) [Compound A332, 2-(7-((2S,5R)-5-ethyl-4-((4-fluorophenyl)(5-(trifluoromethyl)pyridin-2-yl)methyl)-2-methylpiperazin-1-yl)-4-methyl-5-oxo-4,5-dihydro-2H-pyrazolo[4,3-b]pyridin-2-yl)acetonitrile]	0.169 µM	0.123 µM
Cc1ccc(C(c2ccc(C)cc2)N2C[C@H](C)N(c3cc(=O)n(C)c4cn(CC#N)nc34)C[C@H]2C)cc1 [Compound A333]	0.21 µM	10.6 µM
CC#CCn1cc2c(n1)c(N1C[C@@H](C)N(C(C)c3ccc4ncc(C(F)F)nc4c3)C[C@@H]1C)cc(=O)n2C (stereo partly drawn) [Compound A335, 2-(but-2-yn-1-yl)-7-((2S,5R)-4-(1-(3-(difluoromethyl)quinoxalin-6-yl)ethyl)-2,5-dimethylpiperazin-1-yl)-4-methyl-2,4-dihydro-5H-pyrazolo[4,3-b]pyridin-5-one]	0.142 µM	0.61 µM
CC#CCn1cc2c(n1)c(N1C[C@@H](C)N([C@@H](C)c3ccc4ncc(C)nc4c3)C[C@@H]1C)cc(=O)n2C [Compound A336]	0.06 µM	1.57 µM

Second part, the molecule after the results:

IC50 (DGKζ)	IC50 (DGKα)	Compound
0.283 µM	0.203 µM	CC[C@H]1CN(C(C)c2ccc3c(n2)OCC3)[C@H](CC)CN1c1cc(=O)n(C)c2cn(CC#N)nc12 (stereo partly drawn) [Compound A337, 2-(7-((2S,5R)-4-(1-(2,3-dihydrofuro[2,3-b]pyridin-6-yl)ethyl)-2,5-diethylpiperazin-1-yl)-4-methyl-5-oxo-4,5-dihydro-2H-pyrazolo[4,3-b]pyridin-2-yl)acetonitrile]
0.16 µM	0.527 µM	CC[C@H]1CN(C(C)c2ccc(C(C)(C)C#N)cc2)[C@H](CC)CN1c1cc(=O)n(C)c2cn(CC#N)nc12 (some centres unmarked) [Compound A338]
0.361 µM	5.36 µM	CCC(c1ccc(C(C)(C)C#N)cc1)N1C[C@H](CC)N(c2cc(=O)n(C)c3cn(CC#N)nc23)C[C@H]1CC (stereo partly drawn) [Compound A339, 2-(4-(1-((2R,5S)-4-(2-(cyanomethyl)-4-methyl-5-oxo-4,5-dihydro-2H-pyrazolo[4,3-b]pyridin-7-yl)-2,5-diethylpiperazin-1-yl)propyl)phenyl)-2-methylpropanenitrile]
0.248 µM	0.485 µM	CC[C@H]1CN(C(C)c2ccc(C)cc2F)[C@H](CC)CN1c1cc(=O)n(C)c2cn(CC#N)nc12 (some centres unmarked) [Compound A340]
4.25 µM	1.62 µM	CC(c1ccc(CN2CCOC(C)(C)C2)cc1)N1C[C@H](C)N(c2cc(=O)n(C)c3cn(CC#N)nc23)C[C@H]1C (stereo partly drawn) [Compound A341, 2-(7-((2S,5R)-4-(1-(4-((2,2-dimethylmorpholino)methyl)phenyl)ethyl)-2,5-dimethylpiperazin-1-yl)-4-methyl-5-oxo-4,5-dihydro-2H-pyrazolo[4,3-b]pyridin-2-yl)acetonitrile]
0.353 µM	0.229 µM	CC[C@H]1CN(C(C)c2ccc(CN3CCOC(C)(C)C3)cc2)[C@H](CC)CN1c1cc(=O)n(C)c2cn(CC#N)nc12 (some centres unmarked) [Compound A342]
0.675 µM	0.246 µM	CC[C@H]1CN(C(C)c2ccc(CN3C[C@@H](C)O[C@@H](C)C3)cc2)[C@H](CC)CN1c1cc(=O)n(C)c2cn(CC#N)nc12 (stereo partly drawn) [Compound A343, 2-(7-((2S,5R)-4-(1-(4-(((2S,6R)-2,6-dimethylmorpholino)methyl)phenyl)ethyl)-2,5-diethylpiperazin-1-yl)-4-methyl-5-oxo-4,5-dihydro-2H-pyrazolo[4,3-b]pyridin-2-yl)acetonitrile]
0.198 µM	0.108 µM	CC[C@H]1CN(C(C)c2ccc(CN3CCC(F)(F)CC3)cc2)[C@H](CC)CN1c1cc(=O)n(C)c2cn(CC#N)nc12 (some centres unmarked) [Compound A344]
0.205 µM	0.852 µM	CC[C@H]1CN(C(C)c2ccc(C(C)(C)C#N)cc2F)[C@H](CC)CN1c1cc(=O)n(C)c2cn(CC#N)nc12 (stereo partly drawn) [Compound A345, 2-(4-(1-((2R,5S)-4-(2-(cyanomethyl)-4-methyl-5-oxo-4,5-dihydro-2H-pyrazolo[4,3-b]pyridin-7-yl)-2,5-diethylpiperazin-1-yl)ethyl)-3-fluorophenyl)-2-methylpropanenitrile]
0.556 µM	0.029 µM	CC[C@H]1CN(C(C)c2ccc(C)cn2)[C@H](CC)CN1c1cc(=O)n(C)c2cn(CC#N)nc12 (some centres unmarked) [Compound A346]
0.249 µM	0.945 µM	CC[C@H]1CN(C(C)c2ccc(C3CC3)nc2)[C@H](CC)CN1c1cc(=O)n(C)c2cn(CC#N)nc12 (stereo partly drawn) [Compound A350, 2-(7-((2S,5R)-4-(1-(6-cyclopropylpyridin-3-yl)ethyl)-2,5-diethylpiperazin-1-yl)-4-methyl-5-oxo-4,5-dihydro-2H-pyrazolo[4,3-b]pyridin-2-yl)acetonitrile]
0.006 µM	5.4 µM	CC[C@H]1CN(C(C)c2ccc3c(n2)C(C)(C)CO3)[C@H](CC)CN1c1cc(=O)n(C)c2cn(CC#N)nc12 (stereo partly drawn) [Compound A352, 2-(7-((2S,5R)-4-(1-(3,3-dimethyl-2,3-dihydrofuro[3,2-b]pyridin-5-yl)ethyl)-2,5-diethylpiperazin-1-yl)-4-methyl-5-oxo-4,5-dihydro-2H-pyrazolo[4,3-b]pyridin-2-yl)acetonitrile]
1.57 µM	0.635 µM	CC[C@H]1CN(C(C)c2cnc(C)cn2)[C@H](CC)CN1c1cc(=O)n(C)c2cn(CC#N)nc12 (some centres unmarked) [Compound A356]
0.373 µM	5.83 µM	CC[C@H]1CN(C(C)c2cnc(OC(C)C)cc2F)[C@H](CC)CN1c1cc(=O)n(C)c2cn(CC#N)nc12 (some centres unmarked) [Compound A358]
